What was measured:
Type in all cases: functional
[1] = system: HCT-116; test: Antiproliferative activity against MTAP deleted human HCT-116 cells assessed as inhibition of cell viability by luminescence based cell titer-glo assay
[2] = system: HCT-116; test: Antiproliferative activity against MTAP wild type human HCT-116 cells assessed as inhibition of cell viability by luminescence based cell titer-glo assay
[3] = Selectivity ratio of IC50 for antiproliferative activity against MTAP wild type human HCT-116 cells to IC50 for antiproliferative activity against MTAP deleted human HCT-116 cells

SMILES | IC50 [1] | IC50 [2] | Ratio IC50 [3]
CN(C(=O)c1ccc2nc(N)c3c(c2c1)COC3)[C@@H]1CCN(c2ccc(C3=CCOCC3)cc2)C1 | 0.451 µM | > 10 µM | 
CN(C(=O)c1ccc2nc(N)c3c(c2c1)COC3)[C@@H]1CCN(c2ccc(S(C)(=O)=O)cc2)C1 | 0.641 µM | > 10 µM | 
Cn1ncc(-c2ccc3c(=O)[nH]nc(CN)c3c2)c1-c1c(F)c(Cl)cc(OC2CC2)c1C#N |  |  | 73
CN(C(=O)c1ccc2nc(N)c3c(c2c1)COC3)[C@@H]1CCN(c2ccc(C3CC3)cc2)C1 | 1.57 µM |  | 
CN(C(=O)c1ccc2nc(N)c3c(c2c1)COC3)C1CN(c2ccccc2)C1 | 1.59 µM |  | 
CN(C(=O)c1ccc2nc(N)c3c(c2c1)COC3)[C@H]1CCN(c2ccccc2)C1 | 2 µM |  | 
CN(C(=O)c1cc2c3c(c(N)nc2cn1)COC3)[C@@H]1CCN(c2ccc(C#N)cc2)C1 | 0.137 µM | 9.35 µM | 
N#Cc1cccc(N2C[C@@H]3C[C@H]2CN3C(=O)c2ccc3nc(N)c4c(c3c2)COC4)c1 | 3.68 µM |  | 
CN(C(=O)c1ccc2nc(N)c3c(c2c1)COC3)[C@@H]1CCN(c2ccc(-c3cnn(C)c3)cc2)C1 | 0.211 µM | > 10 µM | 
Nc1nc2ccc(C(=O)N3C[C@@H]4C[C@H]3CN4c3ccccc3)cc2c2c1COC2 | 0.719 µM |  | 
Nc1nc2ccc(C(=O)N3C[C@H]4C[C@@H]3CN4c3ccccc3)cc2c2c1COC2 | 2.45 µM |  | 
CN(C(=O)c1ccc2nc(N)c3c(c2c1)COC3)[C@@H]1CCN(c2ccc(C#N)cc2)C1 | 0.095 µM | 7.82 µM | 82
